From patent US20130131075A1, “NEW COMPOUNDS” (Boehringer Ingelheim International GmbH, priority 2009, published 2013)

Molecular target: T1, cynomolgus BK1-receptor (Macaca fascicularis, UniProt Q3BCU0)
T1 construct: expressed in transfected cells; host or cells: CHO cells (homogenate)
T1 sequence (Q3BCU0 1-352): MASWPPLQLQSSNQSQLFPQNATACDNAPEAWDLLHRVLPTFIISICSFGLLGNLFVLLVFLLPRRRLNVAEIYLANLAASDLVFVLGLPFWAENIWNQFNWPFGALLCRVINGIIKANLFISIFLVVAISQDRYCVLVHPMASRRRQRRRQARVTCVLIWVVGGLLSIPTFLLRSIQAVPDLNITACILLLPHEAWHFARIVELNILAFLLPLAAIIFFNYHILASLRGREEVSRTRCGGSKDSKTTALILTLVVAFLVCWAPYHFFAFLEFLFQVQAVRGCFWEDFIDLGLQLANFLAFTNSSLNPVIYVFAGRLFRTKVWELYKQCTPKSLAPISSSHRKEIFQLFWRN
Test: cynoBK1-receptor binding assay
Settings: CHO cells expressing cynomolgus BK1-receptor, radioligand kallidine (DesArg10,Leu9)
Description: Description of the Method of Binding the cynoBK1-Receptor
CHO cells that express the cynomolgus BK1-receptor are cultivated in “HAM'S F-12 Medium”. The medium is removed from confluent cultures, the cells are washed with PBS buffer, scraped off or detached using Versene and isolated by centrifuging. Then the cells are homogenised in suspension, the homogenate is centrifuged and resuspended. After the protein content has been determined 200 μl of the homogenate (50 to 250 μg protein/assay) are incubated for 60-180 minutes at ambient temperature with 0.5 to 5.0 nM kallidine (DesArg10,Leu9), [3,4-Prolyl-3,43H(N)] and increasing concentrations of the test substance in a total volume of 250 μl. The incubation is stopped by rapid filtration through GF/B glass fibre filters that have been pre-treated with polyethyleneimine (0.3%). The radioactivity bound to the protein is measured with a TopCount NXT. The radioactivity bound in the presence of 1.0 μM kallidine (DesArg10) is defined as non-specific binding. The concentration binding curve may be analysed using computer-aided non-linear curve fitting to determine the corresponding Ki value for the test substance.
Test results of the cynoBK1-receptor binding assay: […]

Row | SMILES | Ki [nM] | inhibition at 10 µM (at 10 μgmol/L) [%] | % inhibition at 10 μgmol/L (at 10 μgmol/L) [%]
1 | Cc1ncc(C(=O)NC2(C(=O)NCc3ncc(Nc4c(F)cccc4C(F)(F)F)cc3F)CC2)cn1 [(134)] | 4.7 | 101 | 
2 | N#Cc1ncc(C(=O)NC2(C(=O)NCc3ccc(Nc4ccc(Cl)cc4C(F)(F)F)cn3)CC2)cn1 [(385)] | 9.4 |  | 
3 | Cn1cc(C(=O)N[C@@]2(C(=O)NCc3ccc(Nc4ccccc4C(F)(F)F)cc3)CCOC2)nn1 [(88)] |  | 80 | 
4 | O=C(NC1(C(=O)NCc2ccc(Nc3ccc(Cl)cc3Cl)cn2)CC1)c1cncnc1 [(166)] | 45 | 104 | 
5 | NC(=O)c1ccc(Nc2ccc(CNC(=O)C3(NC(=O)c4cncnc4)CC3)nc2)c(C(F)(F)F)c1 [(198)] | > 500 | 64 | 
6 | COc1cncc(C(=O)NC2(C(=O)NCc3ccc(Nc4ccc(Cl)cc4C(F)(F)F)cn3)CC2)c1 [(313)] | 95 |  | 
7 | COc1cncc(C(=O)NC2(C(=O)NCc3ccc(Nc4ccc(Br)cc4C(F)(F)F)cn3)CC2)c1 [(316)] | 57 |  | 
8 | O=C(NC1(C(=O)NCc2ccc(Nc3ccc(F)cc3C(F)(F)F)cn2)CC1)c1cncc(C(F)(F)F)c1 [(340)] | 28 |  | 
9 | CC(=O)Nc1cncc(C(=O)NC2(C(=O)NCc3ccc(Nc4ccc(F)cc4C(F)(F)F)cn3)CC2)c1 [(249)] | 518 |  | 
10 | O=C(N[C@@]1(C(=O)NCc2ccc(Nc3ccccc3C(F)(F)F)cc2)CCOC1)c1cncnc1 [(155)] |  |  | 101
11 | O=C(NC1(C(=O)NCc2ccc(Nc3ccccc3C(F)(F)F)cn2)CCC(O)C1)c1cncnc1 (stereo not shown) [(192)] |  | 95 | 
12 | CNc1ncc(C(=O)N[C@@]2(C(=O)NCc3ncc(Nc4c(F)cccc4C(F)(F)F)cc3Cl)CCOC2)cn1 [(241)] | 68 |  | 
13 | O=C(NC1(C(=O)NCc2ccc(Nc3ccc(Cl)cc3C(F)(F)F)cn2)CC1)c1cnc(NC2CC2)nc1 [(379)] | 5.5 |  | 
14 | O=C(NC1(C(=O)NCc2ccc(Nc3ccc(Br)cc3C(F)(F)F)cn2)CC1)c1cccc(O)n1 [(140)] | 14 | 106 | 
15 | CCC(=O)NC1(C(=O)NCc2ccc(Nc3ccccc3C(F)(F)F)cc2)CC1 [(13)] |  | 101 | 
16 | Nc1cncc(C(=O)N[C@@]2(C(=O)NCc3ncc(Nc4ccc(Cl)cc4C(F)(F)F)cc3F)CCOC2)c1 [(271)] | 17 |  | 
17 | N#Cc1cc(F)ccc1Nc1cnc(CNC(=O)C2(NC(=O)c3cncnc3)CC2)c(F)c1 [(160)] | 17 | 106 | 
18 | Cc1ncc(C(=O)N[C@@]2(C(=O)NCc3ncc(Nc4ccc(Cl)cc4C(F)(F)F)cc3Cl)CCOC2)cn1 [(282)] | 7.9 |  | 
19 | Nc1cc(C(=O)NC2(C(=O)NCc3ccc(Nc4ccc(F)cc4C(F)(F)F)cn3)CC2)cnn1 [(262)] | 37 |  | 
20 | O=C(N[C@@]1(C(=O)NCc2ccc(Nc3ccccc3C(F)(F)F)cc2)CCOC1)c1ccc(O)nc1 [(98)] | 417 | 103 | 
21 | Cc1ncc(C(=O)N[C@@]2(C(=O)NCc3ncc(Nc4ccc(Cl)cc4C(F)(F)F)cc3F)CCOC2)cn1 [(277)] | 10 |  | 
22 | CCCNc1ncc(C(=O)NC2(C(=O)NCc3ccc(Nc4ccc(Cl)cc4C(F)(F)F)cn3)CC2)cn1 [(380)] | 6.5 |  | 
23 | O=C(N[C@@]1(C(=O)NCc2ccc(Nc3ccccc3C(F)(F)F)cc2)CCOC1)c1cncs1 [(89)] |  | 96 | 
24 | CC(C#N)C(=O)NC1(C(=O)NCc2ccc(Nc3ccc(Cl)cc3C(F)(F)F)cn2)CC1 (stereo not shown) [(368)] | 42 |  | 
25 | CN(C)c1ccc(C(=O)NC2(C(=O)NCc3ccc(Nc4ccc(Br)cc4C(F)(F)F)cn3)CC2)cn1 [(268)] | 281 |  | 
26 | Nc1cncc(C(=O)NC2(C(=O)NCc3ncc(Nc4ccc(F)cc4C(F)(F)F)cc3F)CC2)c1 [(152)] | 3.2 | 105 | 
27 | O=C(N[C@@]1(C(=O)NCc2ccc(Nc3ccccc3C(F)(F)F)cc2)CCOC1)c1cncnc1 [(127)] |  | 108 | 
28 | Cc1nnc(C(=O)NC2(C(=O)NCc3ccc(Nc4ccccc4C(F)(F)F)cc3)CC2)o1 [(27)] |  | 104 | 
29 | COc1ncc(C(=O)NC2(C(=O)NCc3ccc(Nc4ccc(F)cc4C#N)cc3)CC2)cn1 [(182)] | 20 | 99 | 
